Legend:
[1] = test system: human periodontal ligament fibroblasts (HPDLF); assay: Periodontal ligament fibroblast attachment and proliferation on peptide scaffolds; format: cell-based; settings: periodontal ligament fibroblasts cultured for three weeks
Experimental: (§1) 1% RADA16 solution was obtained as PuraMatrix (3DM Inc./BD Bioscience). VEVK9, VEVK12 and the functionalized peptides were obtained from CPC Scientific (San Jose, Calif.) and dissolved in water at final concentration of 1% […]. The functionalized peptide solutions were then mixed with 1% RADA16, VEVK9 or VEVK12 solution at a ratio of 1:1. Each peptide solution was then loaded in the cell culture plate insert (BD Bioscience, Bedford, Mass.). The medium described below was added to induce hydrogel formation.
(§2) Primary isolated human periodontal ligament fibroblasts were commercially obtained from Lonza Inc. (HPDLF, Walkersville, Md.) and routinely grown in the culture medium (SCGM, Walkersville, Md.) on regular cell culture flask. The cells were plated at 2×10^4 cells on the gel in the inserts. The culture medium was changed every three days. Additional growth factors were not used.
(§3) Following the experiments, the cells on the gel were fixed with 4% paraformaldehyde for 15 min and permeabilized with 0.1% Triton X-100 for 5 min at room temperature. Fluorescent Rhodamin phalloidin and SYTOX® Green (Molecular Probes, Eugene, Oreg.) were used for labeling F-actin and nuclei, respectively. Images were taken using a fluorescence microscope (Axiovert 25, ZEISS) or laser confocal scanning microscope (Olympus FV300).

[2] = test system: human periodontal ligament fibroblasts (HPDLF); assay: Periodontal ligament fibroblast migration into peptide scaffolds (confocal microscopy); format: cell-based; settings: for fibroblast adhesion, proliferation and 3-D migration into scaffold: reconstructed confocal images
Experimental: as §1, §2, §3
The functionalized peptide was obtained from CPC Scientific (San Jose, Calif.) and dissolved in water at final concentration of 1% […] as well. The functionalized peptide solutions were then mix with 1% VEVK9 or VEVK12 solution. The each peptide solution was loaded in the cell culture plate insert (BD Bioscience, Bedford, Mass.). The medium described below was added to induce hydrogel formation.

[3] = test system: Human gingival fibroblasts (HGF-1); assay: Gingival fibroblast attachment and migration on peptide scaffolds (selective cell reproduction); format: cell-based; settings: Example 2 comparison study, HGF-1 (FIG. 6)
Experimental: We tested the selective cell reproduction property of the functional scaffolds, using two periodontal cells, periodontal ligament fibroblasts and gingival fibroblasts.
Human gingival fibroblasts were commercially obtained from ATCC (HGF-1) and routinely grown in the culture medium (DMEM+10% FBS) on regular cell culture flask. The cells were plated at 2×10^4 cells on the gel in the inserts. The culture medium was changed every three days.

[4] = test system: human periodontal ligament fibroblasts (HPDLF); assay: Fluorescent immunostaining of type I and type III collagen production on peptide scaffolds; format: cell-based; settings: six weeks cell culture, compared to RADA16 (FIG. 5)
Experimental: as §2
After the cell fixation, the primary antibody for type I collagen (5% Anti-collagen type I, Millpore, Mass.) was added and incubated at 37° for 40 min, then washing six times with PBS with 1% BSA. The second antibody (0.5% Alexa fluor 488 goat anti-rabbit IgG, Invitrogen) was added and incubated at 37° for another 40 min, then washing as well. After that, the primary antibody for type III collagen (0.5% Anti-collagen type III, Millpore, Mass.) was added and incubated at 37° for 40 min, then washing. Finally, the second antibody (0.5% Alexa fluor 594 goat ant-mouse IgG, Invitrogen) was added and incubated at 37° for another 40 min. Nonspecific staining as a control was performed by omitting primary antibodies.

[5] = Tapping mode AFM analysis of nanofiber formation; format: physicochemical; settings: aqueous solutions
Description: VEVK9 and VEVK12 are simple repeating units of amino acids VEVK (Valine-Glutamate-Valine-Lysine) which self-assemble into a nanofiber structure. The self-assembling peptide VEVK9 was functionalized either with RGD, laminin cell adhesion motifs or an MMP cleavable motif in order to mimic extracellular matrix to enhance cell maintenance and function in cell cultures. The functionalized peptides vPRG, vYIG and vIKV were synthesized with the VEVK9 sequence plus an additional motif added to the C-terminus using solid phase synthesis. One motif contains two repetitions of the RGD sequence (PRGDSGYRGDS (SEQ ID NO: 15)), and the others are cell adhesion motifs of laminin (YIGSR (SEQ ID NO: 5), IKVAV (SEQ ID NO: 6)). Glycine residues were used between the self-assembling motif VEVKVEVKV (SEQ ID NO: 2) and the functional motif as a spaced linker to keep the flexibility of the functional peptides. The MMP-2 cleavable motif (PVGLIG (SEQ ID NO: 11)) was inserted between two VEVK units. In comparison to RADA16-I and its functionalized peptides, these peptides are short sequences, maximum 20 amino acids (in vPRG), and seem to be cost-effective. The peptides were solubilized in water at a concentration of 10 mg/ml (1%, w/v). The peptides readily undergo self-assembly to form soft hydrogels. Mixing with self-assembling peptide VEVK9 or VEVK12 facilitated self-assembly and gelation. […]

MMP-2 = target: T1, MMP-2 (Homo sapiens, UniProt P08253); settings: reference 19b; cited from earlier work
T1 sequence (P08253 110-660): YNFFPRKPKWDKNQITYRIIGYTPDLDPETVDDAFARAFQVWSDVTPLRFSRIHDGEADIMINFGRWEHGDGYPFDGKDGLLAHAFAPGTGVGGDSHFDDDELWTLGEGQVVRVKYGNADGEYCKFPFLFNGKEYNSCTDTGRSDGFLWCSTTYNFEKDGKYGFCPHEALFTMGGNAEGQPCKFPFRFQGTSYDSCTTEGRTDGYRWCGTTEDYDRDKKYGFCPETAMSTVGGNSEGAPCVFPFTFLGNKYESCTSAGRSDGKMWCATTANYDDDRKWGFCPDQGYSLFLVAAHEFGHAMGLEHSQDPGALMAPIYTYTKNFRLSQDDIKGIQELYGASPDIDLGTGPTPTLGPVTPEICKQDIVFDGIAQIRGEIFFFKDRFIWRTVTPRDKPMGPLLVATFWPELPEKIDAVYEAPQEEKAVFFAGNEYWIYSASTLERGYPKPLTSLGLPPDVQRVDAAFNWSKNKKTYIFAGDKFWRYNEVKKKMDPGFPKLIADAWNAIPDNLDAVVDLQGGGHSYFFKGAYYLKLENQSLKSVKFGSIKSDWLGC

Substance | cell attachment and morphology [1] | fibroblast adhesion, proliferation and 3-D migration into scaffold [2] | further results
Ac-VEVKVEVKVGYIGSRCONH2 [vYIG] | good attachment and extension | migrate into them in the same manner | –
Ac(RADA)4CONH2 (Ac-RADARADARADARADA-NH2) [RADA16, 1% peptide A solution; self assembling motif, obtained as PuraMatrix] | – | – | gingival fibroblast attachment and migration [3]: did not show migration in both fibroblasts; type I and type III collagens production [4]: not to produce collagens; periodontal ligament fibroblast attachment and migration ([2]; Example 2 comparison study (FIG. 6)): did not show migration in both fibroblasts
Ac-VEVKVEVKVGIKVAVCONH2 [vIKV] | good attachment and extension | migrate into them in the same manner | –
Ac-VEVKVEVKVGPRGDSGYRGDSGCONH2 [vPRG] | good attachment and extension | significant increases in fibroblast proliferation and migration | –
Ac-VEVKVEVKV-CONH2 (Ac-VEVKVEVKV-NH2) [VEVK9, 1% peptide E solution] | sparse and have a rounded morphology | Only a few fibroblasts adhered | –
Ac-VEVKVEVKVEVK-CONH2 (Ac-VEVKVEVKVEVK-NH2) [VEVK12, 1% peptide F solution] | sparse and have a rounded morphology | – | formation of nanofibers [5]: formed nanofibers
(RADA)3PVGLIG (RADA)3 (RADARADARADAPVGLIGRADARA) | – | – | degradability by MMP-2 (MMP-2): degradable by MMP-2
Ac-VEVKGPVGLIGVEVKCONH2 [vPVG] | – | significant increases in fibroblast proliferation and migration | –
